US12539292B2, “BRM targeting compounds and associated methods of use” (Arvinas Operations, Inc., priority 2018, dated 2026)
Where two headings read alike, the source gives them in different places.

Molecular target: T1, BRM (Homo sapiens, UniProt P51531)
T1 construct: In-Cell Western Screen of BRM Degradation in SW1573 Cells; endogenous in cells; host or cells: SW1573
Assay: In-cell Western screen of BRM degradation in SW1573 cells (Dmax and DC50)
Assay type: cell-based
Method in brief: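 SW1573, overnight cpd exposure (18-20 h), 0.1% DMSO final. PFA fix, 0.5% Triton permeabilization, block; IR secondaries at 800/680 nm. Odyssey read → Dmax, DC50.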

[1] = BRM degradation, SW1573 cells, read-out: DC50
[2] = BRM degradation, SW1573 cells, when tested at the top concentration of between 0.3 and 10 μM, read-out: Dmax (%) (% degraded)
[3] = BRM degradation, read-out: BRM DC50
[4] = BRM degradation, SW1573 cells, tested at the top concentration of between 0.3 and 10 μM, read-out: Dmax (%) (% degraded)

T1 sequence (P51531 whole entry): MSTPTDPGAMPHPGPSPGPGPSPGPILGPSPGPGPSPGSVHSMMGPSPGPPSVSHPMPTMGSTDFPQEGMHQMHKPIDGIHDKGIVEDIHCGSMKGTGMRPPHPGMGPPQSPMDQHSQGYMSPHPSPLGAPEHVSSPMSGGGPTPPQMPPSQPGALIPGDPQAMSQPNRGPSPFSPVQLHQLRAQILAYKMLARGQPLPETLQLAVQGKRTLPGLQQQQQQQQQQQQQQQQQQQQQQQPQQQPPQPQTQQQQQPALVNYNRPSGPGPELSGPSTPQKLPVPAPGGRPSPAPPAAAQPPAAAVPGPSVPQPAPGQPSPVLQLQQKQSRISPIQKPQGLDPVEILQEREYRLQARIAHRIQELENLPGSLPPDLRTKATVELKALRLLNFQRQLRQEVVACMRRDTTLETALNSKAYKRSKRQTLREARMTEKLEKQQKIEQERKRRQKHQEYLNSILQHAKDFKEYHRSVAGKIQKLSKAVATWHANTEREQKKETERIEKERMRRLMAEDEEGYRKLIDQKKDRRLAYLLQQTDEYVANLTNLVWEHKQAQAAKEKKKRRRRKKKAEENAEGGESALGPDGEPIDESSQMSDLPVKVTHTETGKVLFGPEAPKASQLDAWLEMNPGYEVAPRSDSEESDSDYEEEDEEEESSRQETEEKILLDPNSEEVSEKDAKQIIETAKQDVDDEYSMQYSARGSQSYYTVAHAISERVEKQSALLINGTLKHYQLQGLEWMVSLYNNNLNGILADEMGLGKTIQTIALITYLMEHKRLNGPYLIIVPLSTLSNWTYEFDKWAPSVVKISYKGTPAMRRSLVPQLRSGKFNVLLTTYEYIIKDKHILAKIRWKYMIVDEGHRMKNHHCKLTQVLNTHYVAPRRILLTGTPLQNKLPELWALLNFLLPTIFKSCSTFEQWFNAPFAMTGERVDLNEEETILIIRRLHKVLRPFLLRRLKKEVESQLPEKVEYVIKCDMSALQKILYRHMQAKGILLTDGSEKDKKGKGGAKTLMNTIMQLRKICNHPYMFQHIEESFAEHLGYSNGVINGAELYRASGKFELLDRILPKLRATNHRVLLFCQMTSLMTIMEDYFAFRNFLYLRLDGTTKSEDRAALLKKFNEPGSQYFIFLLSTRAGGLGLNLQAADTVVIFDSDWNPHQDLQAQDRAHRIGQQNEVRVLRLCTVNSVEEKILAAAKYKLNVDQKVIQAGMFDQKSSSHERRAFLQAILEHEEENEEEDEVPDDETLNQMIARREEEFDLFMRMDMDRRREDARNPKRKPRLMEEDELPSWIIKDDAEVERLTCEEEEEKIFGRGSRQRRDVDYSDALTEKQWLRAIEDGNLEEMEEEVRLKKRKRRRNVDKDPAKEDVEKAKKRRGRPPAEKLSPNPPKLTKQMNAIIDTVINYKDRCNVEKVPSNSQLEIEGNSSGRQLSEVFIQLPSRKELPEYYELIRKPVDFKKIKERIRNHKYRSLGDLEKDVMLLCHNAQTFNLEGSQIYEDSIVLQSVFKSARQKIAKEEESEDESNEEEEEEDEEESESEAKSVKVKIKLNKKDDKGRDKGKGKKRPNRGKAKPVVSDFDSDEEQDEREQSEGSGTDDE

Cc1ncsc1-c1ccc([C@H](C)NC(=O)[C@@H]2C[C@@H](O)CN2C(=O)[C@@H](c2onc(OCCN3CCN(CCOc4cc(N5C6CCC5CN(c5cc(-c7ccccc7O)nnc5N)C6)ccn4)CC3)c2Cl)C(C)C)cc1 [compound 55, (2S,4R)-1-((2R)-2-(3-(2-(4-(2-((4-(3-(3-amino-6-(2-hydroxyphenyl)pyridazin-4-yl)-3,8-diazabicyclo[3.2.1]octan-8-yl)pyridin-2-yl)oxy)ethyl)piperazin-1-yl)ethoxy)-4-chloroisoxazol-5-yl)-3-methylbutanoyl)-4-hydroxy-N-((S)-1-(4-(4-methylthiazol-5-yl)phenyl)ethyl)pyrrolidine-2-carboxamide]
DC50 [1]: < 2.5 nM | Dmax [2]: > 75%

Cc1ncsc1-c1ccc([C@H](C)NC(=O)[C@@H]2C[C@@H](O)CN2C(=O)[C@H](c2cc(N3CCN(C(C)(C)C4CCN(C[C@H]5C[C@H](Oc6cc(N7C8CCC7CN(c7cc(-c9ccccc9O)nnc7N)C8)ccn6)C5)CC4)CC3)no2)C(C)C)cc1 [compound 714, (2S,4R)-1-((2S)-2-(3-(4-(2-(1-(((1r,3r)-3-((4-(3-(3-amino-6-(2-hydroxyphenyl)pyridazin-4-yl)-3,8-diazabicyclo[3.2.1]octan-8-yl)pyridin-2-yl)oxy)cyclobutyl)methyl)piperidin-4-yl)propan-2-yl)piperazin-1-yl)isoxazol-5-yl)-3-methylbutanoyl)-4-hydroxy-N-((S)-1-(4-(4-methylthiazol-5-yl)phenyl)ethyl) pyrrolidine-2-carboxamide]
DC50 [1]: > 30 nM

Cc1ncsc1-c1ccc([C@H](C)NC(=O)[C@@H]2C[C@@H](O)CN2C(=O)[C@H](c2cc(OCCN3CCC(O[C@H]4C[C@H](Oc5cc(N6C7CCC6CN(c6cc(-c8ccccc8O)nnc6N)C7)ccn5)C4)CC3)no2)C(C)C)nn1 [compound 503, (2S,4R)-1-((2S)-2-(3-(2-(4-((1r,3S)-3-((4-(3-(3-amino-6-(2-hydroxyphenyl)pyridazin-4-yl)-3,8-diazabicyclo[3.2.1]octan-8-yl)pyridin-2-yl)oxy)cyclobutoxy)piperidin-1-yl)ethoxy)isoxazol-5-yl)-3-methylbutanoyl)-4-hydroxy-N-((S)-1-(6-(4-methylthiazol-5-yl)pyridazin-3-yl)ethyl)pyrrolidine-2-carboxamide]
DC50 [3]: > 30 nM

CC(=O)NCC#Cc1ncsc1-c1ccc([C@H](C)NC(=O)[C@@H]2C[C@@H](O)CN2C(=O)C(c2cc(OCCN3CCN(CCOc4cc(N5C6CCC5CN(c5cc(-c7ccccc7O)nnc5N)C6)ccn4)CC3)no2)C(C)C)cc1 (stereo partly drawn) [compound 175, (2S,4R)-N-((S)-1-(4-(4-(3-acetamidoprop-1-yn-1-yl)thiazol-5-yl)phenyl)ethyl)-1-(2-(3-(2-(4-(2-((4-(3-(3-amino-6-(2-hydroxyphenyl)pyridazin-4-yl)-3,8-diazabicyclo[3.2.1]octan-8-yl)pyridin-2-yl)oxy)ethyl)piperazin-1-yl)ethoxy)isoxazol-5-yl)-3-methylbutanoyl)-4-hydroxypyrrolidine-2-carboxamide]
DC50 [1]: 2.5 to 10 nM | Dmax [4]: > 75%

CC(C)[C@H](C(=O)N1C[C@H](O)C[C@H]1C(=O)N[C@@H](C)c1ccc(-c2ccnn2C)cc1)c1cc(OCCN2CCN(CCOc3cc(N4C5CCC4CN(c4cc(-c6ccccc6O)nnc4N)C5)ccn3)CC2)no1 [compound 263, (2S,4R)-1-((2S)-2-(3-(2-(4-(2-((4-(3-(3-amino-6-(2-hydroxyphenyl)pyridazin-4-yl)-3,8-diazabicyclo[3.2.1]octan-8-yl)pyridin-2-yl)oxy)ethyl)piperazin-1-yl)ethoxy)isoxazol-5-yl)-3-methylbutanoyl)-4-hydroxy-N-((S)-1-(4-(1-methyl-1H-pyrazol-5-yl)phenyl)ethyl)pyrrolidine-2-carboxamide]
DC50 [1]: 2.5 to 10 nM | Dmax [4]: > 75%

Cc1ncsc1-c1ccc([C@H](C)NC(=O)[C@@H]2C[C@@H](O)CN2C(=O)[C@@H](NC(=O)CN2CCC(OC3CC(Oc4cc(N5C6CC[C@@H]5CN(c5cc(-c7ccccc7O)nnc5N)C6)ccn4)C3)CC2)C(C)(C)C)cc1 (stereo partly drawn) [compound 520, (2S,4R)-1-((2S)-2-(2-(4-((1r,3S)-3-((4-(3-(3-amino-6-(2-hydroxyphenyl)pyridazin-4-yl)-3,8-diazabicyclo[3.2.1]octan-8-yl)pyridin-2-yl)oxy)cyclobutoxy)pipcridin-1-yl)acetamido)-3,3-dimethylbutanoyl)-4-hydroxy-N-((S)-1-(4-(4-methylthiazol-5-yl)phenyl)ethyl)pyrrolidine-2-carboxamide]
BRM Dmax (%) (% degraded, when tested at the top concentration of between 0.3 and 10 μM): A (A > 75) | DC50 [3]: < 2.5 nM

Cc1ncsc1-c1ccc([C@H](C)NC(=O)[C@@H]2C[C@@H](O)CN2C(=O)[C@@H](c2cc(OCCN3C4CC3CN(CCOc3cc(N5C6CCC5CN(c5cc(-c7ccccc7O)nnc5N)C6)ccn3)C4)no2)C(C)C)cc1 [compound 132, (2S,4R)-1-((2R)-2-(3-(2-(3-(2-((4-(3-(3-amino-6-(2-hydroxyphenyl)pyridazin-4-yl)-3,8-diazabicyclo[3.2.1]octan-8-yl)pyridin-2-yl)oxy)ethyl)-3,6-diazabicyclo[3.1.1]heptan-6-yl)ethoxy)isoxazol-5-yl)-3-methylbutanoyl)-4-hydroxy-N-((S)-1-(4-(4-methylthiazol-5-yl)phenyl)ethyl)pyrrolidine-2-carboxamide]
DC50 [1]: 2.5 to 10 nM | Dmax [2]: > 75%

Cc1ncsc1-c1cnc([C@H](C)NC(=O)[C@@H]2C[C@@H](O)CN2C(=O)[C@@H](c2cc(OCCN3CCC(O[C@H]4C[C@H](Oc5cc(N6C7CCC6CN(c6cc(-c8ccccc8O)nnc6N)C7)ccn5)C4)CC3)no2)C(C)C)cn1 [compound 491, (2S,4R)-1-((2R)-2-(3-(2-(4-((1r,3R)-3-((4-(3-(3-amino-6-(2-hydroxyphenyl)pyridazin-4-yl)-3,8-diazabicyclo[3.2.1]octan-8-yl)pyridin-2-yl)oxy)cyclobutoxy)piperidin-1-yl)ethoxy)isoxazol-5-yl)-3-methylbutanoyl)-4-hydroxy-N-((S)-1-(5-(4-methylthiazol-5-yl)pyrazin-2-yl)ethyl)pyrrolidine-2-carboxamide]
DC50 [3]: < 2.5 nM | Dmax (SW1573, % degraded, when tested at the top concentration of between 0.3 and 10 μM, read-out: BRM Dmax (%)): > 75%

Cc1nccn1-c1ccc([C@@H](C)NC(=O)[C@H]2C[C@H](O)CN2C(=O)[C@@H](c2cc(N3CCN(CC4CCN(C[C@H]5C[C@H](Oc6cc(N7C8CCC7CN(c7cc(-c9ccccc9O)nnc7N)C8)ccn6)C5)CC4)CC3)no2)C(C)C)cc1 (racemic) [compound 447, rac-(2R,4S)-1-((2R)-2-(3-(4-((1-(((1r,3r)-3-((4-(3-(3-amino-6-(2-hydroxyphenyl)pyridazin-4-yl)-3,8-diazabicyclo[3.2.1]octan-8-yl)pyridin-2-yl)oxy)cyclobutyl)methyl)piperidin-4-yl)methyl)piperazin-1-yl)isoxazol-5-yl)-3-methylbutanoyl)-4-hydroxy-N-((R)-1-(4-(2-methyl-1H-imidazol-1-yl)phenyl)ethyl)pyrrolidine-2-carboxamide]
DC50 (degradation of BRM, read-out: BRM DC50): > 30 nM

Cc1ncsc1-c1ccc(CNC(=O)[C@@H]2C[C@@H](O)CN2C(=O)[C@H](C(C)C)N2Cc3ccccc3C2=O)c(OCCOCCOCCn2cc(-c3cc(-c4ccccc4O)nnc3N)cn2)c1 [compound 21, (2S,4R)-N-(2-(2-(2-(2-(4-(3-amino-6-(2-hydroxyphenyl)pyridazin-4-yl)-1H-pyrazol-1-yl)ethoxy)ethoxy)ethoxy)-4-(4-methylthiazol-5-yl)benzyl)-4-hydroxy-1-((S)-3-methyl-2-(1-oxoisoindolin-2-yl)butanoyl)pyrrolidine-2-carboxamide]
Dmax [2]: < 50%

Cc1ncsc1-c1ccc([C@H](CO)NC(=O)[C@@H]2C[C@@H](O)CN2C(=O)[C@@H](c2cc(OCCN3CCC(O[C@H]4C[C@H](Oc5cc(N6C7CCC6CN(c6cc(-c8ccccc8O)nnc6N)C7)ccn5)C4)CC3)no2)C(C)C)cc1 [compound 199, (2S,4R)-1-((2R)-2-(3-(2-(4-((1r,3R)-3-((4-(3-(3-amino-6-(2-hydroxyphenyl)pyridazin-4-yl)-3,8-diazabicyclo[3.2.1]octan-8-yl)pyridin-2-yl)oxy)cyclobutoxy)piperidin-1-yl)ethoxy)isoxazol-5-yl)-3-methylbutanoyl)-4-hydroxy-N-((R)-2-hydroxy-1-(4-(4-methylthiazol-5-yl)phenyl)ethyl)pyrrolidine-2-carboxamide]
DC50 [1]: < 2.5 nM | Dmax [4]: > 75%

Cc1ncsc1-c1ccc([C@H](C)NC(=O)[C@@H]2C[C@@H](O)CN2C(=O)[C@@H](c2cc(OCC[C@@H]3CCN(C[C@H]4C[C@H](Oc5cc(N6C7CCC6CN(c6cc(-c8ccccc8O)nnc6N)C7)ccn5)C4)C[C@H]3C)no2)C(C)C)cc1 (racemic) [compound 546, (2S,4R)-1-((2R)-2-(3-(2-((3S,4S)-1-(((1r,3S)-3-((4-(3-(3-amino-6-(2-hydroxyphenyl)pyridazin-4-yl)-3,8-diazabicyclo[3.2.1]octan-8-yl)pyridin-2-yl)oxy)cyclobutyl)methyl)-3-methylpiperidin-4-yl)ethoxy)isoxazol-5-yl)-3-methylbutanoyl)-4-hydroxy-N-((S)-1-(4-(4-methylthiazol-5-yl)phenyl)ethyl)pyrrolidine-2-carboxamide]
Dmax (BRM degradation, SW1573 cells, Table 2D, read-out: **Dmax (%) (% degraded)): > 75% | DC50 (BRM degradation, SW1573 cells, Table 2D, read-out: *DC50): < 2.5 nM
